Laboratory results: ChEMBL document CHEMBL1127237, “Analogs of UK 14,304 as 2-adrenoceptor agonists. Twist and agent polarity as design elements” (Bioorg Med Chem Lett, 1994)

Assays:
[1] = Distribution coefficient between octanol and pH 7.2 phosphate buffer; assay type: physicochemical; conditions: for logD: octanol/phosphate buffer
[2] = target: T1, Adrenergic receptor alpha-1 (Homo sapiens, UniProt P35348+P25100+P35368); experiment: Binding affinity towards Alpha-1 adrenergic receptor in human brain
T1 sequence (P35348 whole entry): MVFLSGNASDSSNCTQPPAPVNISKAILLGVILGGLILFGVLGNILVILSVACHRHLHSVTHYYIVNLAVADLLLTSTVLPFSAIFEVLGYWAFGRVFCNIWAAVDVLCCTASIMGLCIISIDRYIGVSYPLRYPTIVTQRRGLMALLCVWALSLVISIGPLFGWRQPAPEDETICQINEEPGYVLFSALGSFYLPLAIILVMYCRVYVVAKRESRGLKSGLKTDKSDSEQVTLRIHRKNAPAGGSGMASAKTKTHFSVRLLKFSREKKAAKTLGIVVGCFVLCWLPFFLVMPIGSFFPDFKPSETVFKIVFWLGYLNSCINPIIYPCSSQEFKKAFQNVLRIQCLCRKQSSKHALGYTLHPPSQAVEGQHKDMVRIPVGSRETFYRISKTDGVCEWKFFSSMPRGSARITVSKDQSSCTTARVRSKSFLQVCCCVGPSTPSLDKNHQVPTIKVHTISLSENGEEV
T1 sequence (P25100 whole entry): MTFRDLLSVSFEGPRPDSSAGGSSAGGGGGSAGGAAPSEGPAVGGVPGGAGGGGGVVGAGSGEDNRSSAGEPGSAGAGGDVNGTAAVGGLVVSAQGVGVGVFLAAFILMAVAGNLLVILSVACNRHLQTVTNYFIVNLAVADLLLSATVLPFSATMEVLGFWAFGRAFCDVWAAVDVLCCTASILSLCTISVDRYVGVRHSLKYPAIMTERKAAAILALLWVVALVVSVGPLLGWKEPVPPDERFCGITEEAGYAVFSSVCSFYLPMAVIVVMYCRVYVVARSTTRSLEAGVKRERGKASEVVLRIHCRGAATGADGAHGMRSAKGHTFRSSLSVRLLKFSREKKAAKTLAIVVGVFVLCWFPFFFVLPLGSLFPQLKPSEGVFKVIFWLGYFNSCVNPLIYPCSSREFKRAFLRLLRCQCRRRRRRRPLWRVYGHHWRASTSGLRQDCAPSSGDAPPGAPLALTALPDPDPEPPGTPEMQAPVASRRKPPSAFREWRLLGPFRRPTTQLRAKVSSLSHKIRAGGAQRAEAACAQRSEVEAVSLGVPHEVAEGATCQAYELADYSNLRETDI
T1 sequence (P35368 whole entry): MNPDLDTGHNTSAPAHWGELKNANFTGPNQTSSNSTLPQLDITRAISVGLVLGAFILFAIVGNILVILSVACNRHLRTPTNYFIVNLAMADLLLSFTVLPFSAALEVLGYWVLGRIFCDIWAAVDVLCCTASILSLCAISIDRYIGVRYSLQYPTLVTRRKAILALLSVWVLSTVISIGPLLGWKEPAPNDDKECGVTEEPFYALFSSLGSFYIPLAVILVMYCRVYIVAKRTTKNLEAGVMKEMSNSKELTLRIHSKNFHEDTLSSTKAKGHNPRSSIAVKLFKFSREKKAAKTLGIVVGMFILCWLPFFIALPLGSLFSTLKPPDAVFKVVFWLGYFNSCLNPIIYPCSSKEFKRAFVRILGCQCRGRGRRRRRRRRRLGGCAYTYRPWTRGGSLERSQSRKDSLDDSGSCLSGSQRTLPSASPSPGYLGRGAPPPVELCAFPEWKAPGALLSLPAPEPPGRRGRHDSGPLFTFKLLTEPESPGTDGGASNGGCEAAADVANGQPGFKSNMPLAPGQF

[3] = target: T2, Adrenergic receptor alpha-2 (Homo sapiens, UniProt P08913+P18825+P18089); experiment: Binding affinity towards Alpha-2 adrenergic receptor in HT-29 cells; assay type: cell-based
T2 sequence (P08913 whole entry): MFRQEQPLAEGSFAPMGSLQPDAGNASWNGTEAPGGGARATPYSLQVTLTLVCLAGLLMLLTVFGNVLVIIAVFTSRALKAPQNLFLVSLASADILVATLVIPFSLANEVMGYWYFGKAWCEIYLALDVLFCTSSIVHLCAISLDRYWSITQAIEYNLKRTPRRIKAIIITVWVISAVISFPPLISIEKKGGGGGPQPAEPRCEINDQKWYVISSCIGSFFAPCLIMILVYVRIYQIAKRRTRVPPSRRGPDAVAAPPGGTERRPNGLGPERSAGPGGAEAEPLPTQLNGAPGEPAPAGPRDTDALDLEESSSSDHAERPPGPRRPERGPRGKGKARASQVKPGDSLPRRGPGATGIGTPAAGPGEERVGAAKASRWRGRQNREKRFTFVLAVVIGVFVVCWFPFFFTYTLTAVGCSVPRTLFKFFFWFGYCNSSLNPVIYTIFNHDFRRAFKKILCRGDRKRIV
T2 sequence (P18825 whole entry): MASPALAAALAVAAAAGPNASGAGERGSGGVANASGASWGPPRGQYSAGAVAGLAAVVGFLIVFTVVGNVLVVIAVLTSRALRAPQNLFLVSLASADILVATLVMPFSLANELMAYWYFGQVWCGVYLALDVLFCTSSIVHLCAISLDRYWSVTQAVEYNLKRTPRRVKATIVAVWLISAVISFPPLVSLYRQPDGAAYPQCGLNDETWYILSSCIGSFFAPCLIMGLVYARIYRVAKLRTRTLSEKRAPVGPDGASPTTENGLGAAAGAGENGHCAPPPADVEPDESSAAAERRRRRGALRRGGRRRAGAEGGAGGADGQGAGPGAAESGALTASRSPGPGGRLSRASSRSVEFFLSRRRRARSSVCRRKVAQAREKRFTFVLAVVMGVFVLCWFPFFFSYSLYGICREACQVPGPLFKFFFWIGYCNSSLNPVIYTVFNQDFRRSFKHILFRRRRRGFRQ
T2 sequence (P18089 whole entry): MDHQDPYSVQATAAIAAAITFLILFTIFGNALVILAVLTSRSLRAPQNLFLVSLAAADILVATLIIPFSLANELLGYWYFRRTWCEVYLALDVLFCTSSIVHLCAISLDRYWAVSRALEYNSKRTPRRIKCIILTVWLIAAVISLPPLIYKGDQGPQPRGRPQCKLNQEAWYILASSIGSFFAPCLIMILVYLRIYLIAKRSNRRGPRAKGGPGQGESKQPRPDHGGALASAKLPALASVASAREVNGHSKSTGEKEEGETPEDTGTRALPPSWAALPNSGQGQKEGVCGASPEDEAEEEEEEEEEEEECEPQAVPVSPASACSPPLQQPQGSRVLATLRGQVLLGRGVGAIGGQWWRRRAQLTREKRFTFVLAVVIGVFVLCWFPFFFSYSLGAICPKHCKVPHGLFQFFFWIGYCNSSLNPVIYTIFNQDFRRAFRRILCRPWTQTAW

| Ki [2] [nM] | Ki [3] [nM] | logD [1] | SMILES | Log DC ([1]; octanol/water) |
| --- | --- | --- | --- | --- |
|  |  |  | Brc1c(NC2=NCCN2)ccc2nccnc12 [BRIMONIDINE] | 1.5 |
| 5100 | 46 |  | c1cc2c(cc1NC1=NCCN1)NCCN2 |  |
| 8700 | 6.8 | -2.08 | Cc1c(NC2=NCCN2)ccc2c1NCCN2 |  |
| 1100 | 6 | -1.74 | Brc1c(NC2=NCCN2)ccc2c1NCCN2 |  |

| SMILES | Ki [2] [nM] | Ki [3] [nM] | logD [1] | Log DC ([1]; octanol/water) |
| --- | --- | --- | --- | --- |
| Cc1c(NC2=NCCN2)ccc2nccnc12 | 1400 | 1.3 | 0.16 |  |
| c1cnc2cc(NC3=NCCN3)ccc2n1 | 11000 | 64 |  |  |
